What all share (type): in vivo
In assay [1] the test system is Cabbage Looper (Trichoplusia ni, TRIPNI). The experiment in a line: Bioassays on Cabbage Looper (CL), 128-well diet tray assay. Conditions: Cabbage Looper; for pest or weed control at 50 µg/cm2: Trichoplusia ni, rating class, read-out: CL. In a few lines: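 Activity is mean percent mortality over eight wells of second-instar larvae exposed to diet treated at 50 μg/cm^2 for 5–7 days at 25° C.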

Assay [2] relates to Green Peach Aphid (Myzus persicae, MYZUPE). The experiment in a line: Bioassays on Green Peach Aphid (GPA), foliar spray on cabbage seedlings. Particulars: 72 h, Green Peach Aphid. A digest of the protocol: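 Percent control (Abbott-corrected versus solvent-sprayed plants) comes from live-aphid counts three days after treatment at about 25° C. Test solution at 200 ppm was sprayed to runoff onto both leaf surfaces of cabbage seedlings infested a day earlier with 20-50 aphids; four replicate pots.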

Assay [3] relates to Beet Armyworm (Spodoptera exigua, LAPHEG). The experiment in a line: Bioassays on Beet Armyworm (BAW), 128-well diet tray assay. Conditions: Beet Armyworm; for pest or weed control at 50 µg/cm2: Spodoptera exigua, rating class, read-out: BAW. In a few lines:
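Percent larval mortality, averaged across eight wells, scored after five to seven days at 25° C. under 14:10 light-dark. Each well held one to five second instars feeding on diet dosed at 50 μg/cm^2 with compound from 90:10 acetone-water, solvent dried off.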

The test system of assay [4] is Yellow Fever Mosquito (Aedes aegypti, AEDSAE). Conditions: Yellow Fever Mosquito; for YFM: rating class. A digest of the protocol:
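Mortality after 3 days at room temperature is the read-out, scored well by well and converted to a rating. Test molecules came from 4000 ppm stocks in DMSO, further diluted in 90:10 water/acetone, and were exposed to roughly 1-day-old larvae suspended in liver-powder water.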

Molecules are shown by their SMILES. Where two headings read alike, the source gives them in different places.

On to `CC(=O)Nc1cccc(F)c1NC(=O)c1cc(NC(=O)[C@H]2[C@H](c3cc(Cl)cc(Cl)c3)C2(Cl)Cl)ccc1Cl` (relative stereo) [F1636, trans-N-(2-Acetamido-6-fluorophenyl)-2-chloro-5-(2,2-dichloro-3-(3,5-dichlorophenyl)cyclopropane-1-carboxamido)benzamide], for which the pest or weed control at 50 µg/cm2 in assay [1] and in assay [3] was 50 to 100% in each case. The pest or weed control at 200 µg/mL in assay [2] (rating class, read-out: GPA) is 0 to 80%. Besides, in assay [4], the YFM entry is reported as “A (80–100)”.

As for `O=C(Nc1ccc(F)c(NC(=O)C2CCCO2)c1F)c1cc(NC(=O)[C@H]2[C@H](c3ccc(F)c(Cl)c3)C2(Cl)Cl)ccc1Cl` (stereo partly drawn) [F1699, N-(3-(2-Chloro-5-((1R,3R)-2,2-dichloro-3-(3-chloro-4-fluorophenyl)cyclopropane-1-carboxamido)benzamido)-2,6-difluorophenyl)tetrahydrofuran-2-carboxamide], the pest or weed control at 50 µg/cm2 in assay [1] and in assay [3] was 50 to 100% in each case. Moreover, the pest or weed control at 200 µg/mL in assay [2] (rating class, read-out: GPA) fell in the range of 0 to 80%. Besides, the YFM entry in assay [4] is on record as “B (More than 0 – Less than 80)”.

With `O=C(NCCNC(=O)C(F)(F)F)c1cc(NC(=O)[C@H]2[C@H](c3cc(Cl)cc(Cl)c3)C2(Cl)Cl)ccc1Cl` (relative stereo) [F2082, trans-2-Chloro-5-(2,2-dichloro-3-(3,5-dichlorophenyl)cyclopropane-1-carboxamido)-N-(2-(2,2,2-trifluoroacetamido)ethyl)benzamide], the CL rating entry in assay [1] (Table ABC / ABC-DP rating) is given as “A (50–100)”. Besides, the pest or weed control at 200 µg/mL in assay [2] (Table ABC / ABC-DP rating, read-out: GPA rating) was in the range of 80 to 100%. The BAW rating entry in assay [3] (Table ABC / ABC-DP rating) is “A (50–100)”. Further, the YFM rating entry in assay [4] (Table ABC / ABC-DP rating) is “B (More than 0 – Less than 80)”.

In the case of `C[C@H]1CC[C@@H](C(=O)Nc2c(F)ccc(NC(=O)c3cc(NC(=O)[C@H]4[C@H](c5ccc(F)c(C(F)(F)F)c5)C4(Cl)Cl)ccc3Cl)c2F)O1` [F1612, (2S,5S)-N-(3-(2-Chloro-5-((1R,3R)-2,2-dichloro-3-(4-fluoro-3-(trifluoromethyl)phenyl)cyclopropane-1-carboxamido)benzamido)-2,6-difluorophenyl)-5-methyltetrahydrofuran-2-carboxamide], the pest or weed control at 50 µg/cm2 in assay [1] and in assay [3] was 50 to 100% each time. For the same molecule, the pest or weed control at 200 µg/mL in assay [2] (rating class, read-out: GPA) is 0 to 80%. In addition, the YFM entry in assay [4] is on record as “A (80–100)”.

The values are drawn from US20250228239A1, “MOLECULES HAVING PESTICIDAL UTILITY, AND INTERMEDIATES, COMPOSITIONS, AND PROCESSES, RELATED THERETO” (priority 2024, published 2025).
